Data reported in ChEMBL document CHEMBL3885861, “Open TG-GATES”.

Species: Rattus norvegicus
Experiment: Open TG-GATES - Regimen: Single
Format: toxicity, organism-based, Sprague-Dawley
Design: regimen Single, gender Male, age 6 weeks
Conditions: in vivo, po, route gavage; for gamma-GTP / ALP / ALT / AST / CRE / DBIL / IP / K / LDH / Na / RALB / TBIL / TC / TG / TP: tissue Plasma; for Bas / Eos / Fbg / Hb / Lym / MCH / MCHC / MCV / Mono / Neu / PT / RBC / Ret / APTT / WBC: tissue Blood; for KIDNEY_L / KIDNEY_R / KIDNEY_TOTAL: tissue Kidney

Cc1cnc(NC(=O)C2=C(O)c3ccccc3S(=O)(=O)N2C)s1 [MELOXICAM]
gamma-GTP (0 mg/kg, 24 h, dose level Control): 1 IU/L | TERMINAL_BW (10 mg/kg, 3 h, dose level Low): 224.9 g | Bas (10 mg/kg, 3 h, dose level Low): 0.6% | Eos (10 mg/kg, 3 h, dose level Low): 1% | Fbg (10 mg/kg, 3 h, dose level Low): 239 mg/dL | Hb (10 mg/kg, 3 h, dose level Low): 13.3 g/dL | Lym (10 mg/kg, 3 h, dose level Low): 78% | MCH (10 mg/kg, 3 h, dose level Low): 20.8 pg | MCHC (10 mg/kg, 3 h, dose level Low): 33.6% | MCV (10 mg/kg, 3 h, dose level Low): 62 fL | Mono (10 mg/kg, 3 h, dose level Low): 2% | Neu (10 mg/kg, 3 h, dose level Low): 18.2% | PT (10 mg/kg, 3 h, dose level Low): 12.2 s | RBC (10 mg/kg, 3 h, dose level Low): 638.8 x10_4/ul | Ret (10 mg/kg, 3 h, dose level Low): 7.2% | KIDNEY_L (10 mg/kg, 3 h, dose level Low): 1 g | KIDNEY_R (10 mg/kg, 3 h, dose level Low): 1 g | KIDNEY_TOTAL (10 mg/kg, 3 h, dose level Low): 2 g | ALP (10 mg/kg, 3 h, dose level Low): 867.6 IU/L | ALT (10 mg/kg, 3 h, dose level Low): 31.8 IU/L | AST (10 mg/kg, 3 h, dose level Low): 65.8 IU/L | CRE (10 mg/kg, 3 h, dose level Low): 0.3 mg/dL | DBIL (10 mg/kg, 3 h, dose level Low): 0.06 mg/dL | IP (10 mg/kg, 3 h, dose level Low): 9 mg/dL | K (10 mg/kg, 3 h, dose level Low): 4 meq/L | LDH (10 mg/kg, 3 h, dose level Low): 138 IU/L | Na (10 mg/kg, 3 h, dose level Low): 141 meq/L | RALB (10 mg/kg, 3 h, dose level Low): 3.3 g/dL | TBIL (10 mg/kg, 3 h, dose level Low): 0.1 mg/dL | TC (10 mg/kg, 3 h, dose level Low): 73.6 mg/dL | TG (10 mg/kg, 3 h, dose level Low): 62.6 mg/dL | TP (10 mg/kg, 3 h, dose level Low): 5.5 g/dL | gamma-GTP (10 mg/kg, 3 h, dose level Low): 0.8 IU/L | TERMINAL_BW (10 mg/kg, 6 h, dose level Low): 223 g | APTT (10 mg/kg, 6 h, dose level Low): 17.8 s | Bas (10 mg/kg, 6 h, dose level Low): 0.6% | Eos (10 mg/kg, 6 h, dose level Low): 0.6% | Fbg (10 mg/kg, 6 h, dose level Low): 211.6 mg/dL | Hb (10 mg/kg, 6 h, dose level Low): 13.5 g/dL | Lym (10 mg/kg, 6 h, dose level Low): 77.4% | MCH (10 mg/kg, 6 h, dose level Low): 20.7 pg | MCHC (10 mg/kg, 6 h, dose level Low): 33.6% | MCV (10 mg/kg, 6 h, dose level Low): 61.8 fL | Mono (10 mg/kg, 6 h, dose level Low): 2.6% | Neu (10 mg/kg, 6 h, dose level Low): 18.6% | RBC (10 mg/kg, 6 h, dose level Low): 648.4 x10_4/ul | Ret (10 mg/kg, 6 h, dose level Low): 6.4% | WBC (10 mg/kg, 6 h, dose level Low): 95.9 x10_2/uL | KIDNEY_L (10 mg/kg, 6 h, dose level Low): 1 g | KIDNEY_R (10 mg/kg, 6 h, dose level Low): 1 g | KIDNEY_TOTAL (10 mg/kg, 6 h, dose level Low): 2.1 g | ALP (10 mg/kg, 6 h, dose level Low): 957 IU/L | ALT (10 mg/kg, 6 h, dose level Low): 37.2 IU/L | AST (10 mg/kg, 6 h, dose level Low): 70.6 IU/L | CRE (10 mg/kg, 6 h, dose level Low): 0.3 mg/dL | DBIL (10 mg/kg, 6 h, dose level Low): 0.062 mg/dL | IP (10 mg/kg, 6 h, dose level Low): 9 mg/dL | K (10 mg/kg, 6 h, dose level Low): 3.9 meq/L | LDH (10 mg/kg, 6 h, dose level Low): 163.8 IU/L | Na (10 mg/kg, 6 h, dose level Low): 141 meq/L | RALB (10 mg/kg, 6 h, dose level Low): 3.2 g/dL | TBIL (10 mg/kg, 6 h, dose level Low): 0.1 mg/dL | TC (10 mg/kg, 6 h, dose level Low): 66.8 mg/dL | TG (10 mg/kg, 6 h, dose level Low): 64.4 mg/dL | TP (10 mg/kg, 6 h, dose level Low): 5.2 g/dL | gamma-GTP (10 mg/kg, 6 h, dose level Low): 1 IU/L | TERMINAL_BW (10 mg/kg, 9 h, dose level Low): 220.5 g | APTT (10 mg/kg, 9 h, dose level Low): 17.8 s | Bas (10 mg/kg, 9 h, dose level Low): 0% | Eos (10 mg/kg, 9 h, dose level Low): 0.8% | Fbg (10 mg/kg, 9 h, dose level Low): 216.6 mg/dL | Hb (10 mg/kg, 9 h, dose level Low): 13.4 g/dL | Lym (10 mg/kg, 9 h, dose level Low): 77.8% | MCH (10 mg/kg, 9 h, dose level Low): 21 pg | MCHC (10 mg/kg, 9 h, dose level Low): 34% | MCV (10 mg/kg, 9 h, dose level Low): 62.1 fL | Mono (10 mg/kg, 9 h, dose level Low): 2.8% | Neu (10 mg/kg, 9 h, dose level Low): 17.8% | RBC (10 mg/kg, 9 h, dose level Low): 637.8 x10_4/ul | Ret (10 mg/kg, 9 h, dose level Low): 6.7% | KIDNEY_L (10 mg/kg, 9 h, dose level Low): 1 g | KIDNEY_R (10 mg/kg, 9 h, dose level Low): 1 g | KIDNEY_TOTAL (10 mg/kg, 9 h, dose level Low): 2.1 g | ALP (10 mg/kg, 9 h, dose level Low): 759.6 IU/L | ALT (10 mg/kg, 9 h, dose level Low): 35 IU/L | AST (10 mg/kg, 9 h, dose level Low): 66 IU/L | CRE (10 mg/kg, 9 h, dose level Low): 0.4 mg/dL | DBIL (10 mg/kg, 9 h, dose level Low): 0.06 mg/dL | IP (10 mg/kg, 9 h, dose level Low): 9.5 mg/dL | K (10 mg/kg, 9 h, dose level Low): 3.9 meq/L | LDH (10 mg/kg, 9 h, dose level Low): 176.6 IU/L | Na (10 mg/kg, 9 h, dose level Low): 141.8 meq/L | RALB (10 mg/kg, 9 h, dose level Low): 3.4 g/dL | TBIL (10 mg/kg, 9 h, dose level Low): 0.1 mg/dL | TC (10 mg/kg, 9 h, dose level Low): 69.4 mg/dL | TG (10 mg/kg, 9 h, dose level Low): 41.6 mg/dL | TP (10 mg/kg, 9 h, dose level Low): 5.3 g/dL | gamma-GTP (10 mg/kg, 9 h, dose level Low): 1 IU/L | TERMINAL_BW (10 mg/kg, 24 h, dose level Low): 237.5 g | Bas (10 mg/kg, 24 h, dose level Low): 0.2% | Eos (10 mg/kg, 24 h, dose level Low): 0.8% | Fbg (10 mg/kg, 24 h, dose level Low): 214 mg/dL | Hb (10 mg/kg, 24 h, dose level Low): 13.1 g/dL | Lym (10 mg/kg, 24 h, dose level Low): 74.4% | MCH (10 mg/kg, 24 h, dose level Low): 21.8 pg | MCHC (10 mg/kg, 24 h, dose level Low): 33.9% | MCV (10 mg/kg, 24 h, dose level Low): 64.2 fL | Mono (10 mg/kg, 24 h, dose level Low): 3.2% | Neu (10 mg/kg, 24 h, dose level Low): 20.8% | PT (10 mg/kg, 24 h, dose level Low): 11.8 s | RBC (10 mg/kg, 24 h, dose level Low): 601.4 x10_4/ul | Ret (10 mg/kg, 24 h, dose level Low): 7% | WBC (10 mg/kg, 24 h, dose level Low): 133.5 x10_2/uL | KIDNEY_L (10 mg/kg, 24 h, dose level Low): 1.1 g | KIDNEY_R (10 mg/kg, 24 h, dose level Low): 1.1 g | KIDNEY_TOTAL (10 mg/kg, 24 h, dose level Low): 2.2 g | ALP (10 mg/kg, 24 h, dose level Low): 959.4 IU/L | ALT (10 mg/kg, 24 h, dose level Low): 36.8 IU/L | AST (10 mg/kg, 24 h, dose level Low): 70 IU/L | CRE (10 mg/kg, 24 h, dose level Low): 0.4 mg/dL | DBIL (10 mg/kg, 24 h, dose level Low): 0.082 mg/dL | IP (10 mg/kg, 24 h, dose level Low): 7.9 mg/dL | K (10 mg/kg, 24 h, dose level Low): 4.2 meq/L | LDH (10 mg/kg, 24 h, dose level Low): 177.8 IU/L | Na (10 mg/kg, 24 h, dose level Low): 141 meq/L | RALB (10 mg/kg, 24 h, dose level Low): 3.2 g/dL | TBIL (10 mg/kg, 24 h, dose level Low): 0.1 mg/dL | TC (10 mg/kg, 24 h, dose level Low): 72 mg/dL | TG (10 mg/kg, 24 h, dose level Low): 84.4 mg/dL
